Experimental findings from patent US20080004561A1, “Method for Treating Oncological, Virulent and Somatic Diseases, Method for Controlling Treatment Efficiency, Pharmaceutical Agents and Composition for Carrying Out Said Treatment” (priority 2005, published 2008) are described below.

Test [1] relates to Escherichia coli ATCC25922. As to the kind of experiment: Influence of DNase on bacterial biofilm formation on glass (Example 4). The class given is cell-based. As to the method:
(§1) For estimation of possible mechanisms of DNase action on bacteria' interactions with host's organism we have estimated its influence on biofilm formation.
(§2) Experiments were performed on biofilm models, received at laboratory cultivation on the surface of glass. Non-relative Gram-positive (Staphylococcus aureus VT-209) and Gram-negative (Escherichia coli ATCC25922) bacteria were used.
(§3) Bacteria were sowed at 10^9 bacteria/ml concentrations and were incubated at 37° C. during 72 hours on synthetic M9 media that contains additives necessary for used bacteria strains. DNase was added in amount of 100 mkg/ml right after bacteria' inoculation. Identical volume of phosphate buffer was added to control. Selective vials were taken for analysis every 24 hours.
(§4) Glasses were washed by PBS buffer, fixed, stained with methylene blue and studied with the use of light microscopy.

Test [2] deals with Staphylococcus aureus VT-209. The description is as above. Type of test: cell-based. As to the method:
as §1, §2, §3, §4

[3] abbreviates: DNase 100 mkg/ml added right after inoculation, 37° C., 72 hours, M9 media, light microscopy.
Where [4] appears, read: DNase 100 mkg/ml, control sowings from vials.

DNase: the Biofilm formation entry in test [1] (setting [3]) and in test [2] (setting [3]) was “normal biofilm was not formed” each time. Also, the “Colony-forming units (CFU) in comparison with controls” value in test [1] (setting [4]) and in test [2] (setting [4]) was “no death of cells” in each case.
